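Five compound concentrations were applied to cells in 96-well plates for 48 hours; endpoints were derived by simple linear interpolation of the resulting dose-response curve. GI50: concentration for 50% inhibition of growth. Definition used: TGI = concentration required for complete inhibition of growth.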
Experiments:
Assay in all cases: NCI tumour cell line growth inhibition, 48 h
MCF7 breast = tested on: MCF7 breast
UACC-257 melanoma = tested on: UACC-257 melanoma
SK-OV-3 ovarian = tested on: SK-OV-3 ovarian
M14 melanoma = tested on: M14 melanoma
MALME-3M melanoma = tested on: MALME-3M melanoma
A549 NSCLC = tested on: A549 NSCLC
PC-3 prostate = tested on: PC-3 prostate
RXF 393 renal = tested on: RXF 393 renal
CCRF-CEM leukemia = tested on: CCRF-CEM leukemia
SK-MEL-2 melanoma = tested on: SK-MEL-2 melanoma
UACC-62 melanoma = tested on: UACC-62 melanoma
KM12 colon = tested on: KM12 colon
786-0 renal = tested on: 786-0 renal
LOX IMVI melanoma = tested on: LOX IMVI melanoma
SW-620 colon = tested on: SW-620 colon
HCT-15 colon = tested on: HCT-15 colon
OVCAR-5 ovarian = tested on: OVCAR-5 ovarian
HOP-92 NSCLC = tested on: HOP-92 NSCLC
SK-MEL-28 melanoma = tested on: SK-MEL-28 melanoma

| Compound | TGI (MCF7 breast) [µM] | TGI (UACC-257 melanoma) [µM] | TGI (SK-OV-3 ovarian) [µM] | TGI (M14 melanoma) [µM] | TGI (MALME-3M melanoma) [µM] | TGI (A549 NSCLC) [µM] | TGI (PC-3 prostate) [µM] | TGI (RXF 393 renal) [µM] | TGI (CCRF-CEM leukemia) [µM] | TGI (SK-MEL-2 melanoma) [µM] | TGI (UACC-62 melanoma) [µM] | TGI (KM12 colon) [µM] | TGI (786-0 renal) [µM] | TGI (LOX IMVI melanoma) [µM] | TGI (SW-620 colon) [µM] | TGI (HCT-15 colon) [µM] | TGI (OVCAR-5 ovarian) [µM] | TGI (HOP-92 NSCLC) [µM] | TGI (SK-MEL-28 melanoma) [µM] | GI50 (HOP-92 NSCLC) [µM] |
| --- | --- | --- | --- | --- | --- | --- | --- | --- | --- | --- | --- | --- | --- | --- | --- | --- | --- | --- | --- | --- |
| COc1cc(N=NN(C)C)c(C(C)c2c3cc(OC)c(OC)cc3cc[n+]2C)cc1OC (stereo not given) | > 100 | > 100 | > 100 | > 100 | 87.5 | > 100 | > 100 | > 100 | > 100 | 87.5 | 59.5 | 54.6 | > 100 | > 100 | > 100 | > 100 | > 100 | – | – | – |
| CCSC1=N/C(=C\c2ccccc2O)C(Nc2ccc(C)cc2)=N1 | – | > 100 | > 100 | > 100 | > 100 | > 100 | > 100 | > 100 | > 100 | > 100 | > 100 | > 100 | > 100 | > 100 | > 100 | > 100 | > 100 | > 100 | > 100 | – |
| CCOP(=O)(/C=C\n1cnc2c(=O)n(C(C)=O)c(N)nc21)OCC | > 100 | > 100 | > 100 | > 100 | – | > 100 | > 100 | > 100 | > 100 | – | > 100 | > 100 | > 100 | > 100 | > 100 | > 100 | > 100 | – | > 100 | – |
| CN1CCC2(CC1)C(=O)N(N1CCCCCC1)C(=O)N2c1ccccc1 | > 100 | > 100 | > 100 | > 100 | > 100 | > 100 | > 100 | > 100 | > 100 | > 100 | > 100 | > 100 | > 100 | > 100 | > 100 | > 100 | > 100 | – | > 100 | – |
| CC(=O)c1ccc(Oc2ccc(/C(C)=N\N=C(N)N)cc2)cc1 | – | 19 | 9.25 | 4.76 | 8.12 | 14.5 | – | – | 10.4 | 6.17 | 10.1 | – | – | 13.1 | – | 13.2 | 17.4 | 13.8 | 17.4 | – |
| COP(C)(=O)/C(Cc1ccccc1)=N\O (stereo not given) | > 100 | > 100 | > 100 | > 100 | – | > 100 | > 100 | – | > 100 | > 100 | – | – | – | > 100 | > 100 | > 100 | > 100 | > 100 | > 100 | – |
| CC(=O)OC1CC2CCC1(C)C2(C)C (stereo not given) | > 100 | > 100 | > 100 | > 100 | > 100 | – | > 100 | > 100 | > 100 | > 100 | > 100 | > 100 | > 100 | > 100 | > 100 | > 100 | > 100 | – | > 100 | – |
| CCP(=O)(CC)C(Cl)(Cl)C(O)C(C)(C)C (stereo not given) | > 100 | > 100 | > 100 | > 100 | – | > 100 | > 100 | – | > 100 | > 100 | – | – | – | > 100 | > 100 | > 100 | > 100 | > 100 | > 100 | – |
| Cc1ccc(C(=O)C(C)N)cc1 (stereo not given) | – | > 100 | > 100 | > 100 | > 100 | > 100 | – | > 100 | > 100 | > 100 | > 100 | > 100 | > 100 | > 100 | > 100 | > 100 | > 100 | > 100 | > 100 | – |
| COC(=O)C1=Nc2c(C)nn(-c3ccccc3)c2N=C(c2ccc(C)cc2)C1 | > 10 | > 10 | > 10 | > 10 | > 10 | > 10 | > 10 | – | – | – | > 10 | > 10 | > 10 | > 10 | > 10 | > 10 | – | > 10 | > 10 | – |
| Cc1csc2nc(-c3ccc([N+](=O)[O-])cc3)c(/C=N/N=C(N)N)n12 | – | 3.05 | 3.11 | 3.41 | 3.61 | 3.2 | 3.25 | 3.45 | 4.11 | 2.86 | 3.17 | 3.49 | 3.24 | 3.63 | – | 1.68 | 2.85 | 2.22 | 3.23 | – |
| CC(NS(C)(=O)=O)c1ccccc1 (stereo not given) | > 100 | > 100 | – | > 100 | > 100 | > 100 | > 100 | > 100 | > 100 | > 100 | > 100 | > 100 | > 100 | > 100 | > 100 | > 100 | > 100 | – | > 100 | – |
| C=C1c2c(cc3c(c2O)c(=O)c2ccccc2n3C)OC1(C)C | – | – | 97.2 | > 100 | > 100 | – | – | – | > 100 | > 100 | > 100 | – | – | > 100 | > 100 | > 100 | – | 65.9 | > 100 | – |
| C=C(C=O)c1c2c(nc3ccccc13)C(=O)c1ccccc1C2=O | – | – | 12.8 | 1.6 | 3.27 | – | 10.6 | – | 0.792 | – | 2.59 | 2.71 | > 100 | 45 | – | 1.01 | 4.92 | 5.23 | – | – |
| CC1C(c2ccc3c(c2)OCO3)c2cc3c(cc2OC1N1CCCC1)OCO3 (stereo not given) | > 100 | > 100 | – | 57.6 | – | > 100 | > 100 | – | 76.1 | 90.4 | > 100 | > 100 | > 100 | > 100 | > 100 | > 100 | > 100 | – | > 100 | – |
| c1ccc(N=C2SC(=NNc3ccccc3)SC2=Nc2ccccc2)cc1 | – | > 100 | > 100 | – | > 100 | > 100 | > 100 | > 100 | > 100 | > 100 | > 100 | > 100 | > 100 | > 100 | > 100 | > 100 | > 100 | > 100 | > 100 | – |
| Cc1c(-c2cc3n(n2)C(c2cccs2)C(C#N)=C(c2ccccc2)N3)c(=O)n(-c2ccccc2)n1C (stereo not given) | > 100 | 98.7 | > 100 | – | > 100 | > 100 | – | > 100 | > 100 | > 100 | > 100 | > 100 | – | > 100 | > 100 | > 100 | > 100 | > 100 | > 100 | – |
| CC(=O)[O-].CC(=O)[O-].O=C(N/N=C/c1cc(Cl)cc(Cl)c1[OH2+])c1ccncc1.[Co+2] | – | > 100 | > 100 | > 100 | > 100 | > 100 | – | > 100 | > 100 | – | > 100 | > 100 | > 100 | > 100 | > 100 | > 100 | > 100 | 95.9 | > 100 | 23.6 |
| O=C(NO)c1coc2ccccc2c1=O | – | > 100 | 31.4 | > 100 | > 100 | > 100 | – | > 100 | > 100 | > 100 | > 100 | > 100 | – | > 100 | > 100 | > 100 | > 100 | – | > 100 | – |
| O=C(N/N=C1\CCc2ccccc2C1)N/N=C1\CCc2ccccc2C1 | > 10 | > 10 | – | > 10 | > 10 | > 10 | > 10 | > 10 | > 10 | > 10 | – | > 10 | > 10 | – | > 10 | > 10 | > 10 | – | – | – |
| CC(C)(C)[Si](C)(C)OCCCC#CCO | – | > 100 | > 100 | > 100 | > 100 | > 100 | – | > 100 | > 100 | > 100 | > 100 | > 100 | – | > 100 | > 100 | > 100 | > 100 | – | > 100 | – |
| NC(=O)CCC(NCc1c2ccccc2[n+]([O-])c2ccccc12)C(=O)O (stereo not given) | – | > 100 | > 100 | > 100 | > 100 | > 100 | – | – | > 100 | > 100 | > 100 | > 100 | > 100 | > 100 | > 100 | > 100 | > 100 | – | > 100 | – |
| N#Cc1[nH]c(=O)n(-c2ccc(Cl)cc2)c1N | > 10 | > 10 | > 10 | > 10 | > 10 | > 10 | > 10 | > 10 | > 10 | > 10 | > 10 | > 10 | > 10 | > 10 | – | > 10 | > 10 | – | > 10 | – |
| COc1cc(OC)c2c(c1OC)OCC(Cc1ccc(O)cc1)C2=O (stereo not given) | – | > 25 | > 25 | > 25 | > 25 | > 25 | > 25 | > 25 | > 25 | > 25 | > 25 | > 25 | > 25 | > 25 | > 25 | > 25 | > 25 | – | > 25 | – |
| O=C(O)CSc1cc(-c2ccccc2)nc2ccccc12 | – | > 100 | – | > 100 | > 100 | > 100 | > 100 | 94.8 | – | > 100 | > 100 | > 100 | > 100 | > 100 | > 100 | > 100 | > 100 | > 100 | > 100 | – |
| Cc1ccc2c(c1)NC(=O)CCSSCCC(=O)N2 | – | > 100 | > 100 | > 100 | > 100 | > 100 | > 100 | > 100 | > 100 | > 100 | > 100 | > 100 | > 100 | > 100 | > 100 | > 100 | > 100 | > 100 | > 100 | – |
| CC[N+]1(C)CCC(O)(c2ccc(Cl)cc2)C(C(=O)c2ccc(Cl)cc2)C1 (stereo not given) | 2.71 | 61 | 27.7 | 36.2 | 25.6 | – | 33 | 27.4 | 19.7 | – | 27.9 | 31.7 | – | 25.6 | – | 41.3 | 33.1 | – | 29.4 | – |
| N#Cc1c(-c2ccccc2)/c(=C\O)c(=O)n2c1nc1ccccc12 | – | > 100 | > 100 | > 100 | > 100 | > 100 | > 100 | > 100 | > 100 | > 100 | > 100 | > 100 | > 100 | – | > 100 | > 100 | > 100 | – | > 100 | – |
| Cc1cc2[nH]c3c(C#N)c(-c4ccccc4)c(N=Nc4cccc(C(F)(F)F)c4)c(=O)n3c2cc1C | > 100 | > 100 | > 100 | > 100 | > 100 | > 100 | > 100 | > 100 | > 100 | > 100 | – | > 100 | > 100 | > 100 | > 100 | > 100 | > 100 | – | > 100 | – |
